Results taken from patent publication US9963486B2, “Peptidomimetics for treating HER2-overexpressed cancer” (Board of Supervisors for the University of Louisiana System, priority 2014, dated 2018).
Like-named read-outs stand apart in the source and are kept apart here. One block for each compound: values may come before it. Numbered stars: 1 amine (or outer) side, 2 acyl side, 3 side chain; on linkers, the order of the positions; unused ones are H or OH. Square brackets hold non-standard residues; d marks the D form. Peptide text beside a SMILES is read from it. βAla(3R-(1-naphthyl)) = O=C(C[C@@H](N[*:1])c1cccc2ccccc12)[*:2]; X1 = O=C(CC(N[*:1])c1cccc2ccccc12)[*:2]

Experiments:
[1] = tested on: SKBR-3 HER2-overexpressing breast cancer cells
Description: (§1) Compounds were tested for antiproliferative activity against several cancer cell lines and a control cell line. […] CP was the control peptidomimetic. […] SKOV-3 and Calu-3 are HER2-overexpressing ovarian and lung cancer cells, respectively. (+) and (−) indicate HER2-positive and HER2-negative, respectively.

[2] = tested on: SKOV-3 HER2-overexpressing ovarian cancer cells
Description: as §1

[3] = Stability in mouse serum (electrospray-mass spectrometry)
Description: (§2) Compounds were incubated in mouse serum for various times, and then extracted using a solid-phase extraction technique. The compounds were analyzed with electrospray-mass spectrometry. A known amount of a freshly-prepared internal standard was used for calibration.

[4] = mouse, serum
Description: as §2

[5] = tested on: MCF-7 breast cancer cells that do not overexpress HER2
Description: as §1

[6] = tested on: Calu-3 HER2-overexpressing lung cancer cells
Description: as §1

[7] = tested on: MCF-10A normal breast epithelial cell line
[8] = tested on: BT-474 HER2-overexpressing breast cancer cells
Description: as §1

[9] = tested on: HER2-expressing breast tumors (BT-474 cells); test: BT-474 xenograft model of breast cancer, tumor volume; type: in vivo, nude mice; details: 4 mg/kg injected just below the tumor, twice a week for 19 days; Days 9-19
Description: We evaluated the ability of Compound 18 to suppress HER2-expressing breast tumors in a xenograft model of breast cancer. Breast cancer tumors were induced in nude mice by injecting 2 million BT-474 cells; these estrogen-dependent cancer cells were stimulated by an implanted estrogen pellet. Compound 9, Compound 18, vehicle, or lapatinib (positive control) were injected just below the tumor at a dose of 4 mg/kg, twice a week for 19 days, for a total of 6 injections. Mice weight and health were monitored daily. Tumor size was measured with Vernier calipers. Tumor volume was estimated using the formula Volume=length×0.5 (width)^2. At the end of the experimental period, mice were euthanized and tumor sections were removed and frozen for further analysis. FIG. 9 depicts tumor volume as a function of time for the various treatments.

[10] = tested on: BT-474 HER2-overexpressing breast cancer cells; test: cells; details: Homo sapiens, BT-474, read-out: IC50 BT-474 (+)
Description: as §1

[11] = read-out: IC50 SKBR-3 (+), antiproliferative activity, HER2-positive breast cancer cells, Table 3
[12] = read-out: IC50 SKOV-3 (+), antiproliferative activity, HER2-positive ovarian cancer cells, Table 3
[13] = read-out: IC50 MCF-7 (−), antiproliferative activity, HER2-negative breast cancer cells, Table 3
[14] = read-out: IC50 Calu-3 (+), antiproliferative activity, HER2-positive lung cancer cells, Table 3
[15] = read-out: IC50 BT-474 (+), antiproliferative activity, HER2-positive breast cancer cells, Table 3

Compound: N=C(N)NCCC[C@H](N)C(=O)NC(CC(=O)N[C@@H](Cc1ccccc1)C(=O)O)c1cccc2ccccc12 (some centres unmarked) [Compound 5, H2N-R(Anapa)F-OH]
IC50 [1, 11]: 396 ± 22 nM | IC50 [2, 12]: 658 ± 40 nM | half-life ([3]; mouse, serum): 2 to 3 h

Compound: N=C(N)NCCC[C@@H]1NC(=O)[C@H]2CCCN2C(=O)[C@@H]2CCCN2C(=O)[C@H](CCCNC(=N)N)NC(=O)CC(c2cccc3ccccc23)NC(=O)[C@H](Cc2ccccc2)NC(=O)[C@H](CC(=O)O)NC(=O)[C@H](CC(=O)O)NC(=O)[C@H](Cc2ccccc2)NC(=O)CC(c2cccc3ccccc23)NC1=O (some centres unmarked) [Compound 18, Cyclo(1,10)PpR(Anapa)FDDF(Anapa)R] (cyclo(P[dP]R[X1]FDDF[X1]R))
half-life [4]: > 48 h | IC50 [1, 11]: 194 ± 46 nM | IC50 [5, 13]: > 50000 nM | IC50 [2, 12]: 853 ± 102 nM | IC50 [6, 14]: 18 ± 13 nM | toxicity to normal cells [7]: not toxic to normal cells | IC50 ([7]; read-out: IC50 MCF-10A, antiproliferative activity, normal breast epithelial cell line): 40000 nM

Compound: N=C(N)NCCC[C@H]1NC(=O)[C@H]2CCCN2C(=O)[C@@H]2CCCN2C(=O)[C@@H](CCCNC(=N)N)NC(=O)C[C@H](c2cccc3ccccc23)NC(=O)[C@@H](Cc2ccccc2)NC(=O)[C@@H](CC(=O)O)NC(=O)[C@@H](CC(=O)O)NC(=O)[C@@H](Cc2ccccc2)NC(=O)C[C@H](c2cccc3ccccc23)NC1=O [Compound 38, Cyclo(Ppr-(R)Anapa-fddf-(R)Anapa-r] (cyclo(P[dP][dR][βAla(3R-(1-naphthyl))][dF][dD][dD][dF][βAla(3R-(1-naphthyl))][dR]))
IC50 ([8]; read-out: Antiproliferative activity IC50 BT-474, Table 5): 860 ± 50 nM | IC50 ([1]; read-out: Antiproliferative activity IC50 SKBR-3, Table 5): 800 ± 70 nM | IC50 ([5]; read-out: Antiproliferative activity IC50 MCF-7, Table 5): 13500 ± 700 nM | IC50 ([6]; read-out: Antiproliferative activity IC50 Calu-3, Table 5): 550 ± 200 nM

Compound: H2N-K(3-amino-biphenyl propionic acid)F-OH [CP, reference compound]
IC50 [8, 15]: > 100000 nM | IC50 [1, 11]: > 100000 nM | IC50 [5, 13]: > 100000 nM | IC50 [2, 12]: > 100000 nM | IC50 [6, 14]: > 100000 nM

The next lines start with results.

IC50 [8]: 595 ± 270 nM | IC50 [1]: 373 ± 150 nM | IC50 [5]: > 50000 nM | IC50 [2]: 373 ± 150 nM | IC50 [6]: 1090 ± 310 nM
Compound: CC(=O)N[C@H](Cc1ccccc1)C(=O)NC(CC(=O)N[C@H](CCCNC(=N)N)C(N)=O)c1cccc2ccccc12 (some centres unmarked) [Compound 21, Ac-f(Anapa)r-NH2]

IC50 [8]: 400 ± 140 nM | IC50 [1]: 500 ± 280 nM | IC50 [5]: > 100000 nM | IC50 [6]: 900 ± 200 nM
Compound: N=C(N)NCCC[C@@H]1NC(=O)[C@H]2CCCN2C(=O)[C@@H]2CCCN2C(=O)[C@H](CCCCN)NC(=O)C[C@H](c2cccc3ccccc23)NC(=O)[C@H](Cc2ccccc2)NC(=O)[C@H](CC(=O)O)NC(=O)[C@H](CC(=O)O)NC(=O)[C@H](Cc2ccccc2)NC(=O)C[C@H](c2cccc3ccccc23)NC1=O [Compound 33, Cyclo(PpR-(R)Anapa-FDDF-(R)Anapa-K]

IC50 [8]: 850 ± 70 nM
Compound: N=C(N)NCCC[C@H]1NC(=O)[C@H]2CCCN2C(=O)[C@@H]2CCCN2C(=O)[C@@H](CC(=O)O)NC(=O)[C@@H](Cc2ccccc2)NC(=O)C[C@H](c2cccc3ccccc23)NC(=O)[C@@H](CCCNC(=N)N)NC(=O)[C@@H](CC(=O)O)NC(=O)[C@@H](Cc2ccccc2)NC(=O)C[C@H](c2cccc3ccccc23)NC1=O [Compound 41, Cyclo(Ppr-(R)Anapa-fdr-(R)Anapa-fd] (cyclo(P[dP][dR][βAla(3R-(1-naphthyl))][dF][dD][dR][βAla(3R-(1-naphthyl))][dF][dD]))

IC50 [10]: 25 ± 4 nM
Compound: CS(=O)(=O)CCNCc1ccc(-c2ccc3ncnc(Nc4ccc(OCc5cccc(F)c5)c(Cl)c4)c3c2)o1 [Lapatinib, reference compound]
tumor volume compared to control [9]: decreased tumor volume

IC50 [8, 15]: 785 ± 11 nM | IC50 [1, 11]: 445 ± 32 nM | IC50 [5, 13]: 45000 nM | IC50 [2, 12]: 417 ± 55 nM | IC50 [6, 14]: 847 ± 71 nM | time within which degraded in mouse serum ([3]; mouse serum, FIG. 10): ≤ 24 h
Compound: H2N-R(Anapa)FD-OH [Compound 9]
tumor volume compared to control [9]: decreased tumor volume
